# Key:
# AβTotal = experiment: Amyloidβ peptide release (AβTotal) assay, AlphaLisa on supernatant of APPswe-HEK cells; format: cell-based, human; settings: 24 hours, ratio Abtot versus Ab42
# Method: (§1) Amyloidβ Peptide Release (Aβ42 & AβTotal) Assay to Determine IC50 Values.
# (§2) Amyloidβ peptide release (Aβ42 & AβTotal) assay are performed in 384 well microtiter plates (Perkin Elmer AlphaPlate #6008350) in a final volume of 20 μl, using supernatant coming from APPswe-HEK cells exposed to test compounds. Compounds are dissolved in and diluted in 100% DMSO and incubated with APPswe-HEK cells for 24 hours a 37° C. in 5% CO2. The supernatant from APPswe-HEK cells are mixed with antibodies: for Aβ42 detection: AlphaLisa Amyloid β 1-42 Kit (Perkin Elmer AL203L) Anti-Amyloid β1-42-specific antibody acceptor beads, biotinylated anti-Amyloid “β1-42” antibody and streptavidin (SA) donor beads diluted in AlphaLisa buffer (to the instructions of the supplier). For Aβ total detection: Custom Anti-Amyloid βtotal acceptor beads (6E10 acceptor beads), biotinylated anti-Amyloid “β1-42” antibody (Perkin Elmer AL203L) and streptavidin (SA) donor beads diluted in AlphaLisa buffer (to the instructions of the supplier). After addition of supernatant to the antibody mix, the assay is incubated 4 h and 30 minutes. AmyloidP peptide release (Aβ42 & AβTotal) is measured with a Pherastar FS (BMG) multimode reader using the alphascreen module.
# Aβ42 = experiment: Amyloidβ peptide release (Aβ42) assay, AlphaLisa on supernatant of APPswe-HEK cells; format: cell-based; settings: Homo sapiens, 24 hours incubation with compound, read-out: Ab42 IC50 Ranges
# Method: as §1, §2
SMILES,IC50 (Aβ42) [µM],Abtot/Ab42 selectivity ranges (AβTotal)
"COc1cc(NC(=O)c2nnn3c2CCC3c2ccccc2Cl)ccc1-n1cnc(C)c1 (stereo not shown) [Example 32, 6-(2-chlorophenyl)-N-(3-methoxy-4-(4-methyl-1H-imidazol-1-yl)phenyl)-5,6-dihydro-4H-pyrrolo[1,2-c][1,2,3]triazole-3-carboxamide]",≤ 0.15,b (b: 100 fold > selectivity ≧ 50 fold)
"COc1cc(NC(=O)c2nnn3c2CCC3c2ccccc2Cl)ccc1-c1cnn(C)c1 (stereo not shown) [Example 33, 6-(2-chlorophenyl)-N-(3-methoxy-4-(1-methyl-1H-pyrazol-4-yl)phenyl)-5,6-dihydro-4H-pyrrolo[1,2-c][1,2,3]triazole-3-carboxamide]",0.5 to 1,c (c: 50 fold > selectivity ≧ 10 fold)
"COc1cc(NC(=O)c2nnn3c2CCC3c2ccc(Cl)c(Cl)c2)ccc1-c1cnn(C)c1 (stereo not shown) [Example 35, 6-(3,4-dichlorophenyl)-N-(3-methoxy-4-(1-methyl-1H-pyrazol-4-yl)phenyl)-5,6-dihydro-4H-pyrrolo[1,2-c][1,2,3]triazole-3-carboxamide]",0.15 to 0.5,c (c: 50 fold > selectivity ≧ 10 fold)
"COc1cc(NC(=O)c2nnn3c2CCC3c2ccc(F)cc2)ccc1-c1cnn(C)c1 (stereo not shown) [Example 37, 6-(4-fluorophenyl)-N-(3-methoxy-4-(1-methyl-1H-pyrazol-4-yl)phenyl)-5,6-dihydro-4H-pyrrolo[1,2-c][1,2,3]triazole-3-carboxamide]",< 1,c (c: 50 fold > selectivity ≧ 10 fold)
"COc1cc(C(=O)Nc2nnn3c2CCCC3c2ccc(F)cc2Cl)ccc1-n1cnc(C)c1 (stereo not shown) [Example 39, N-(7-(2-chloro-4-fluorophenyl)-4,5,6,7-tetrahydro-[1,2,3]triazolo[1,5-a]pyridin-3-yl)-3-methoxy-4-(4-methyl-1H-imidazol-1-yl)benzamide]",0.15 to 0.5,b (b: 100 fold > selectivity ≧ 50 fold)
"COc1cc(C(=O)Nc2nnn3c2CCCC3c2ccc(Cl)c(Cl)c2)ccc1-n1cnc(C)c1 (stereo not shown) [Example 41, N-(7-(3,4-dichlorophenyl)-4,5,6,7-tetrahydro-[1,2,3]triazolo[1,5-a]pyridin-3-yl)-3-methoxy-4-(4-methyl-1H-imidazol-1-yl)benzamide]",0.15 to 0.5,b (b: 100 fold > selectivity ≧ 50 fold)
"COc1cc(C(=O)Nc2nnn3c2CCCC3c2cccc(C(F)(F)F)c2)ccc1-n1cnc(C)c1 (stereo not shown) [Example 42, 3-methoxy-4-(4-methyl-1H-imidazol-1-yl)-N-(7-(3-(trifluoromethyl)phenyl)-4,5,6,7-tetrahydro-[1,2,3]triazolo[1,5-a]pyridin-3-yl)benzamide]",0.5 to 1,c (c: 50 fold > selectivity ≧ 10 fold)
"COc1cc(C(=O)Nc2nnn3c2CCCC3c2ccc(F)cc2)ccc1-n1cnc(C)c1 (stereo not shown) [Example 43, N-(7-(4-fluorophenyl)-4,5,6,7-tetrahydro-[1,2,3]triazolo[1,5-a]pyridin-3-yl)-3-methoxy-4-(4-methyl-1H-imidazol-1-yl)benzamide]",< 1,a (a: selectivity ≧ 100 fold)
COc1cc(C(=O)Nc2nnn3c2CCC3c2ccc(Cl)c(Cl)c2)ccc1-n1cnc(C)c1 (stereo not shown) [Example 45],0.15 to 0.5,c (c: 50 fold > selectivity ≧ 10 fold)
"COc1cc(C(=O)Nc2nnn3c2CCC3c2ccc(F)cc2)ccc1-c1ccnc(C)c1 (stereo not shown) [Example 47, N-(6-(4-fluorophenyl)-5,-dihydro-4H-pyrrolo[1,2-c][1,2,3]triazol-3-yl)-3-methoxy-4-(2-methylpyridin-4-yl)benzamide]",< 1,d (d: 10 fold > selectivity)

# More lines, main results first:
IC50 (Aβ42) [µM],SMILES,Abtot/Ab42 selectivity ranges (AβTotal)
0.15 to 0.5,"Cc1cn(-c2ccc(NC(=O)c3nnn4c3CCC4c3ccc(Cl)cc3)cc2F)cn1 (stereo not shown) [Example 26, 6-(4-chlorophenyl)-N-(3-fluoro-4-(4-methyl-1H-imidazol-1-yl)phenyl)-5,6-dihydro-4H-pyrrolo[1,2-c][1,2,3]triazole-3-carboxamide]",b (b: 100 fold > selectivity ≧ 50 fold)
0.15 to 0.5,"Cc1cn(-c2ccc(NC(=O)c3nnn4c3CCC4c3ccc(Cl)cc3)cc2C#N)cn1 (stereo not shown) [Example 27, 6-(4-chlorophenyl)-N-(3-cyano-4-(4-methyl-1H-imidazol-1-yl)phenyl)-5,6-dihydro-4H-pyrrolo[1,2-c][1,2,3]triazole-3-carboxamide]",c (c: 50 fold > selectivity ≧ 10 fold)
≤ 0.15,"COc1cc(NC(=O)c2nnn3c2CCC3c2ccc(Cl)cc2)ccc1-n1cnc(C)c1 (stereo not shown) [Example 28, 6-(4-chlorophenyl)-N-(3-methoxy-4-(4-methyl-1H-imidazol-1-yl)phenyl)-5,6-dihydro-4H-pyrrolo[1,2-c][1,2,3]triazole-3-carboxamide]",b (b: 100 fold > selectivity ≧ 50 fold)
< 1,"COc1nc(NC(=O)c2nnn3c2CCC3c2ccc(Cl)cc2)ccc1-n1cnc(C)c1 (stereo not shown) [Example 29, 6-(4-chlorophenyl)-N-(6-methoxy-5-(4-methyl-1H-imidazol-1-yl)pyridin-2-yl)-5,6-dihydro-4H-pyrrolo[1,2-c][1,2,3]triazole-3-carboxamide]",a (a: selectivity ≧ 100 fold)
≤ 0.15,"COc1cc(NC(=O)c2nnn3c2CC[C@@H]3c2ccc(Cl)cc2)ccc1-n1cnc(C)c1 [Example 30, (R)-6-(4-chlorophenyl)-N-(3-methoxy-4-(4-methyl-1H-imidazol-1-yl)phenyl)-5,6-dihydro-4H-pyrrolo[1,2-c][1,2,3]triazole-3-carboxamide]",b (b: 100 fold > selectivity ≧ 50 fold)
0.15 to 0.5,"COc1cc(NC(=O)c2nnn3c2CC[C@H]3c2ccc(Cl)cc2)ccc1-n1cnc(C)c1 [Example 31, (S)-6-(4-chlorophenyl)-N-(3-methoxy-4-(4-methyl-1H-imidazol-1-yl)phenyl)-5,6-dihydro-4H-pyrrolo[1,2-c][1,2,3]triazole-3-carboxamide]",c (c: 50 fold > selectivity ≧ 10 fold)
≤ 0.15,"COc1cc(NC(=O)c2nnn3c2CCC3c2ccc(Cl)c(Cl)c2)ccc1-n1cnc(C)c1 (stereo not shown) [Example 34, 6-(3,4-dichlorophenyl)-N-(3-methoxy-4-(4-methyl-1H-imidazol-1-yl)phenyl)-5,6-dihydro-4H-pyrrolo[1,2-c][1,2,3]triazole-3-carboxamide]",a (a: selectivity ≧ 100 fold)
0.15 to 0.5,"COc1cc(NC(=O)c2nnn3c2CCC3c2ccc(F)cc2)ccc1-n1cnc(C)c1 (stereo not shown) [Example 36, 6-(4-fluorophenyl)-N-(3-methoxy-4-(4-methyl-1H-imidazol-1-yl)phenyl)-5,6-dihydro-4H-pyrrolo[1,2-c][1,2,3]triazole-3-carboxamide]",b (b: 100 fold > selectivity ≧ 50 fold)
0.15 to 0.5,"COc1cc(NC(=O)c2nnn3c2COCC3c2ccc(Cl)cc2)ccc1-n1cnc(C)c1 (stereo not shown) [Example 38, 7-(4-chlorophenyl)-N-(3-methoxy-4-(4-methyl-1H-imidazol-1-yl)phenyl)-6,7-dihydro-4H-[1,2,3]triazolo[5,1-c][1,4]oxazine-3-carboxamide]",b (b: 100 fold > selectivity ≧ 50 fold)
0.15 to 0.5,"COc1cc(C(=O)Nc2nnn3c2CCCC3c2ccc(Cl)cc2)ccc1-n1cnc(C)c1 (stereo not shown) [Example 40, N-(7-(4-chlorophenyl)-4,5,6,7-tetrahydro-[1,2,3]triazolo[1,5-a]pyridin-3-yl)-3-methoxy-4-(4-methyl-1H-imidazol-1-yl)benzamide]",b (b: 100 fold > selectivity ≧ 50 fold)
0.15 to 0.5,"COc1cc(C(=O)Nc2nnn3c2CCC3c2ccc(Cl)cc2)ccc1-n1cnc(C)c1 (stereo not shown) [Example 44, N-(6-(4-chlorophenyl)-5,6-dihydro-4H-pyrrolo[1,2-c][1,2,3]triazol-3-yl)-3-methoxy-4-(4-methyl-1H-imidazol-1-yl)benzamide]",c (c: 50 fold > selectivity ≧ 10 fold)
0.5 to 1,"COc1cc(C(=O)Nc2nnn3c2CCC3c2ccc(F)cc2)ccc1-n1cnc(C)c1 (stereo not shown) [Example 46, N-(6-(4-fluorophenyl)-5,6-dihydro-4H-pyrrolo[1,2-c][1,2,3]triazol-3-yl)-3-methoxy-4-(4-methyl-1H-imidazol-1-yl)benzamide]",c (c: 50 fold > selectivity ≧ 10 fold)
< 1,"COc1cc(N(C)C(=O)c2nnn3c2CCCC3c2ccc(Cl)cc2)ccc1-n1cnc(C)c1 (stereo not shown) [Example 48, 7-(4-chlorophenyl)-N-(3-methoxy-4-(4-methyl-1H-imidazol-1-yl)phenyl)-N-methyl-4,5,6,7-tetrahydro-[1,2,3]triazolo[1,5-a]pyridine-3-carboxamide]",a (a: selectivity ≧ 100 fold)

# — patent publication US9527853B2, “Fused triazole derivatives as gamma secretase modulators” (Ares Trading S.A., priority 2012, dated 2016)
